Results taken from PMC6100568, “Novel Uridine Glycoconjugates, Derivatives of 4-Aminophenyl 1-Thioglycosides, as Potential Antiviral Compounds” (Molecules : A Journal of Synthetic Chemistry and Natural …, 2018).
Entries after “also recorded” stand apart in the source; their conditions may differ. Like-named read-outs stand apart in the source and are kept apart here.

Legend:
[1] = MTT cell viability assay in non-infected Huh-7.5 cells; details: human
[2] = system: HCVcc (Jc1/JFH genotype 2a); test: HCVcc pseudo-plaque reduction assay (IPMA) in Huh-7.5 cells; details: for SI (CC50/IC50): HCV (Huh-7.5 cells); for IC50: Hepatitis C virus, Huh7.5
[3] = system: classical swine fever virus (CSFV)
[4] = system: classical swine fever virus (CSFV); test: microbe, parasite or virus in culture
[5] = in vitro; details: swine
[6] = system: classical swine fever virus (CSFV); details: cited from earlier work
[7] = system: viral genome replication; details: cited from earlier work
[8] = system: HCVcc (Jc1/JFH genotype 2a); details: cited from earlier work
[9] = system: Huh-7.5 cells; details: cited from earlier work
[10] = system: swine kidney (SK6) cells; details: cited from earlier work
[11] = system: HCV replication (Huh7-J17 replicon); test: HCV replicon Huh7-J17 luciferase assay; assay type: cell-based; details: Hepatitis C virus; Huh7-J17 replicon cells, 72 h; read-out: IC50 (inhibition of HCV RNA replication, luciferase activity)
[12] = in vitro; details: human
[13] = system: HCVcc genotype 2a JFH-1 strain; test: SEAP reporter assay in Huh7-J20 cells, three infection models (time-of-drug addition); assay type: cell-based, hepatitis C virus; details: SEAP level; for effect on virus entry (Model 1): 1 h pre-treatment + 3 h infection with compound, then 72 h without; for antiviral activity in post-viral entry model (Model 3): compound added after 3 h infection for 72 h; for antiviral activity in full life cycle (Model 2): compound present before, during and 72 h after infection
[14] = system: HCV viral RNA (NS5B gene); assay type: cell-based, hepatitis C virus
[15] = system: swine kidney (SK6) cells
[16] = system: Huh-7.5 cells; test: MTT cell viability assay in non-infected Huh-7.5 cells; details: concentration reducing cell viability by 50%, mean ± S.D.
[17] = system: Huh7-J17 cells; details: human
[18] = molecular target: T1, β-1,4GalT (Bos taurus, UniProt P08037); test: Bovine milk β-1,4GalT I assay (RP-HPLC, fluorescence); assay type: biochemical; details: for ability to inhibit β-1,4GalT activity: 0.8 mM
T1 construct: purchased; host or cells: bovine milk
T1 sequence (P08037 78-402 limits assumed): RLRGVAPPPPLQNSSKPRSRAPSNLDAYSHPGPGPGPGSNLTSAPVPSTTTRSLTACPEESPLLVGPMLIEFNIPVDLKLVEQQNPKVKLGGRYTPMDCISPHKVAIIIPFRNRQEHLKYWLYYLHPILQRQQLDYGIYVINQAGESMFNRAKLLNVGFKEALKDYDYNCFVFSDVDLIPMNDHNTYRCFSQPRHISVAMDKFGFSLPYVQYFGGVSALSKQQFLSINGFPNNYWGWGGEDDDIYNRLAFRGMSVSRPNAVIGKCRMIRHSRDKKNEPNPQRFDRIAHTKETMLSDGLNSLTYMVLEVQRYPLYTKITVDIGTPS

Row | SMILES | CC50 [1] | SI (CC50/IC50) [2] | IC50 [2] | SI (CC50/IC50) [3] | IC50 [4] | CC50 [5] | further results
1 | CC(=O)OC[C@H]1O[C@@H](Sc2ccc(NC(=O)CCC(=O)OC[C@H]3O[C@@H](n4ccc(=O)[nH]c4=O)[C@@H]4OC(C)(C)O[C@@H]43)cc2)[C@H](OC(C)=O)[C@@H](OC(C)=O)[C@@H]1OC(C)=O [Compound 7] | 399 ± 11.4 µM | 1.4 | 281 ± 4.7 µM | 1.1 | 97 ± 2 µM | 103 ± 5.9 µM | 
2 | CC(=O)OC[C@H]1O[C@@H](Sc2ccc(NC(=O)[C@H]3O[C@@H](n4ccc(=O)[nH]c4=O)[C@H](O[Si](C)(C)C(C)(C)C)[C@@H]3O[Si](C)(C)C(C)(C)C)cn2)[C@H](OC(C)=O)[C@@H](OC(C)=O)[C@H]1OC(C)=O [II] |  |  |  |  |  |  | IC50 [6]: 6 ± 0.4 µM; SI (CC50/IC50) [6]: 25.2; reduction of viral genome replication [7]: up to 90%; IC50 [8]: 7 ± 0.4 µM; SI (CC50/IC50) [8]: 24.7; CC50 [9]: 173 ± 3.2 µM; CC50 [10]: 151 ± 3.1 µM
3 | CC(=O)OC[C@H]1O[C@@H](Sc2ccc(NC(=O)[C@H]3O[C@@H](n4ccc(=O)[nH]c4=O)[C@H](O[Si](C)(C)C(C)(C)C)[C@@H]3O[Si](C)(C)C(C)(C)C)cc2)[C@H](OC(C)=O)[C@@H](OC(C)=O)[C@@H]1OC(C)=O [Compound 12] | 270 ± 2.9 µM | 20.0 | 13.5 ± 0.7 µM |  | 4 ± 0.1 µM | 56 ± 4.3 µM | IC50 [11]: 4.24 µM; CC50 [12]: 130 µM; effect on virus entry (Model 1) [13]: none of the tested compounds targeted virus entry; also recorded: neither compound affected viral entry; antiviral activity in post-viral entry model (Model 3) [13]: strong antiviral activity; antiviral activity in full life cycle (Model 2) [13]: strong antiviral activity; amount of viral RNA (NS5B RT-PCR) [14]: significant dose-dependent inhibition; cytotoxicity in words [15]: relatively toxic
4 | CC(=O)OC[C@H]1O[C@@H](Sc2ccc(NC(=O)[C@H]3O[C@@H](n4ccc(=O)[nH]c4=O)[C@H](O[Si](C)(C)C(C)(C)C)[C@@H]3O[Si](C)(C)C(C)(C)C)cn2)[C@H](OC(C)=O)[C@@H](OC(C)=O)[C@@H]1OC(C)=O [I] |  |  |  |  |  |  | IC50 [6]: 3 ± 0.1 µM; SI (CC50/IC50) [6]: 28.7; reduction of viral genome replication [7]: up to 90%; IC50 [8]: 7 ± 0.7 µM; SI (CC50/IC50) [8]: 19.3; CC50 [9]: 135 ± 2.4 µM; CC50 [10]: 86 ± 2.4 µM
5 | CC(C)OC(=O)[C@H](C)N[P@](=O)(OC[C@H]1O[C@@H](n2ccc(=O)[nH]c2=O)[C@](C)(F)[C@@H]1O)Oc1ccccc1 [SOFOSBUVIR, sofosbuvir, reference compound] |  | 119.2 | 0.26 ± 0.02 µM |  |  |  | IC50 [11]: 0.028 µM; CC50 [16]: 31 ± 1.2 µM; effect on virus entry (Model 1) [13]: no effect on virus entry; antiviral activity in post-viral entry model (Model 3) [13]: exerts its antiviral activity effect; antiviral activity in full life cycle (Model 2) [13]: exerts its antiviral activity effect; CC50 [17]: 23.5 µM
6 | CC(=O)OC[C@H]1O[C@@H](Sc2ccc(NC(=O)CCC(=O)OC[C@H]3O[C@@H](n4ccc(=O)[nH]c4=O)[C@H](O[Si](C)(C)C(C)(C)C)[C@@H]3O[Si](C)(C)C(C)(C)C)cc2)[C@H](OC(C)=O)[C@@H](OC(C)=O)[C@@H]1OC(C)=O [Compound 8] | 16 ± 1.1 µM | 4 | 4 ± 0.2 µM | 9.3 | 4.5 ± 0.3 µM | 42 ± 1.9 µM | cytotoxicity in words [15]: relatively toxic
7 | CC(=O)OC[C@H]1O[C@@H](Sc2ccc(NC(=O)[C@H]3O[C@@H](n4ccc(=O)[nH]c4=O)[C@H](O[Si](C)(C)C(C)(C)C)[C@@H]3O[Si](C)(C)C(C)(C)C)cc2)[C@H](OC(C)=O)[C@@H](OC(C)=O)[C@H]1OC(C)=O [Compound 13] | 14 ± 0.9 µM | 1.9 | 7.4 ± 0.2 µM | 2.0 | 25 ± 0.9 µM | 49 ± 3.5 µM | cytotoxicity in words [15]: relatively toxic
8 | CC(=O)OC[C@H]1O[C@@H](Sc2ccc(NC(=O)CCC(=O)OC[C@H]3O[C@@H](n4ccc(=O)[nH]c4=O)[C@H](O[Si](C)(C)C(C)(C)C)[C@@H]3O[Si](C)(C)C(C)(C)C)cc2)[C@H](OC(C)=O)[C@@H](OC(C)=O)[C@H]1OC(C)=O [Compound 9] | 257 ± 5.7 µM | 52.4 | 4.9 ± 0.3 µM | 29.5 | 4.2 ± 0.5 µM | 124 ± 6.8 µM | IC50 [11]: 4.18 µM; inhibition of viral HCV replication (pseudo-plaques) ([2]; Huh-7.5 cells, 4–10 µM, Figure 2): dose-dependent inhibition; CC50 [12]: 133 µM; effect on virus entry (Model 1) [13]: none of the tested compounds targeted virus entry; also recorded: neither compound affected viral entry; antiviral activity in post-viral entry model (Model 3) [13]: strong antiviral activity; antiviral activity in full life cycle (Model 2) [13]: strong antiviral activity; amount of viral RNA (NS5B RT-PCR) [14]: significant dose-dependent inhibition; inhibition of CSFV propagation (size and number of pseudo-plaques) [3]: dose-dependent inhibition
9 | CC(=O)OC[C@H]1O[C@@H](Sc2ccc(NC(=O)[C@H]3O[C@@H](n4ccc(=O)[nH]c4=O)[C@@H]4OC(C)(C)O[C@@H]43)cc2)[C@H](OC(C)=O)[C@@H](OC(C)=O)[C@H]1OC(C)=O [Compound 11] | 272 ± 4.5 µM | 1.6 | 167 ± 3.1 µM | 1.6 | 217 ± 3.9 µM | 340 ± 9.1 µM | 
10 | CC(=O)OC[C@H]1O[C@@H](Sc2ccc(NC(=O)[C@H]3O[C@@H](n4ccc(=O)[nH]c4=O)[C@@H]4OC(C)(C)O[C@@H]43)cc2)[C@H](OC(C)=O)[C@@H](OC(C)=O)[C@@H]1OC(C)=O [Compound 10] | 258 ± 6.2 µM | 1.7 | 154 ± 2.8 µM | 2.2 | 149 ± 6.1 µM | 326 ± 11.2 µM | 
11 | O=C(Nc1ccc(S[C@@H]2O[C@H](CO)[C@H](O)[C@H](O)[C@H]2O)cc1)[C@H]1O[C@@H](n2ccc(=O)[nH]c2=O)[C@H](O)[C@@H]1O [Compound 15] | 460 ± 9.3 µM | 1.0 | 454 ± 9.8 µM | 1.1 | 257 ± 6.9 µM | 278 ± 4.3 µM | ability to inhibit β-1,4GalT activity [18]: demonstrated the ability of β-1,4GalT inhibition; reduction of enzyme activity ([18]; maximum test concentration of 0.8 mM): 10%
12 | O=C(Nc1ccc(S[C@@H]2O[C@H](CO)[C@@H](O)[C@H](O)[C@H]2O)cc1)[C@H]1O[C@@H](n2ccc(=O)[nH]c2=O)[C@H](O)[C@@H]1O [Compound 14] | > 475 µM | >1.1 | 444 ± 12.4 µM | 1.1 | 241 ± 9.2 µM | 256 µM | ability to inhibit β-1,4GalT activity [18]: demonstrated the ability of β-1,4GalT inhibition; also recorded: able to inhibit; IC50 ([18]; inhibitor 0.1–0.8 mM, UDP-Gal donor, esculine acceptor): 330 µM; CC50 ([15]; swine): 265 ± 8.6 µM
